Measurements published in US6649144B1, “Method for detecting and killing epithelial cancer cells” (Zila, Inc., priority 2001, dated 2003).

Test system: carcinoma cells
Test: Uptake and retention of mitochondrial marking agents in living carcinoma cells
Format: cell-based
Conditions: 5 minutes incubation at 37° C., rinsed twice with 1% acetic acid, 2-butanol extraction, spectrophotometry
Procedure: Different concentrations of the various cationic marking agents, at 100, 50, 10 and 1 μg/ml are prepared in RPMI medium complete with 20% fetal calf serum, 1 mM glutamine, hydrocortisone, insulin, transferrin, estradiol, selenium and growth hormone.
The carcinoma cells are incubated at 37° C. in tissue culture incubators with 5% CO2 and 95% relative humidity, for 5 minutes with each agent and concentration there and then rinsed twice using 2 minute incubations with 1% acetic acid. After incubation and rinsing, the cells are harvested, at 30 min., 1 hour, 2 hours, 4 hours and 8 hours. The cells are then extracted with 2-butanol and analyzed by spectrophotometry for quantitation of the marking agent.
The saturation concentration for toluidine blue O occurs at concentrations of 10 μg/ml and above. The saturation concentrations for the other marking agents are similarly determined. The remaining experiments are conducted with a concentration of 10 μg/ml for toluidine blue O and at the saturation concentrations for the other marking agents so-determined, unless stated otherwise.

SMILES: Cc1cc2nc3ccc(N(C)C)cc3[s+]c2cc1N.[Cl-] [toluidine blue O]
- saturation concentration: ≥ 10 µg/mL
